Source: the OPERA property sets (Mansouri et al. 2018)

Row | SMILES | logP
1 | Cc1ccc(Cl)c(N=C2NCCN2)c1 | 1.83
2 | O=C(NC12CC3CC(CC(C3)C1)C2)C(O)c1ccccc1 (stereo unspecified) | 3.09
3 | CCCNC(=O)COc1ccc(OCCNCC(O)COc2ccccc2)cc1 (stereo unspecified) | 2.4
4 | Clc1ccc(-c2cccc(Cl)c2)cc1 | 5.15
5 | CCOC(=O)C(C(=O)OCC)=C1SCCS1 | 2.45
6 | CC(=Cc1ccccc1)C(=O)O | 2.6
7 | NC(=O)c1ccccc1OCc1ccc([N+](=O)[O-])cc1 | 1.73
8 | CCOC(=O)CC(NC(=O)CCCCSc1ncnc2nc[nH]c12)C(=O)OCC (stereo unspecified) | 1.33
9 | CCNC(=O)c1cc(Cl)cc(C)c1O | 3.55
10 | CCc1cccc2ccccc12 | 4.4
11 | CCCCCCCCC(C)(C)c1ccc(C2CCCC(O)C2)c(O)c1 (stereo unspecified) | 8.16
12 | CCC(CC)(C(=O)NC(N)=O)C(=O)OCc1ccccc1 | 2.74
13 | NC(=O)c1cc(Cl)ccc1NCCO | 1.26
14 | CC(C)c1cccc(S(N)(=O)=O)c1 | 1.81
15 | CCCCCc1cc(O)c2c(c1)OC(C)(C)C1CC=C(C)CC21 (stereo unspecified) | 7.41
16 | CCCNCC(O)COc1ccc(-c2ncc(-c3cccs3)[nH]2)cc1 (stereo unspecified) | 2.84
17 | CCCOc1ccc(Cc2cnc(N)nc2N)cc1OC | 2.02
18 | Cc1cnc([N+](=O)[O-])n1CCO | 0.18
19 | O=C(COc1ccc(OCCNCC(O)COc2ccccc2)cc1)NCCCO (stereo unspecified) | 0.5
20 | Cc1ccc(C)c(O)c1C | 2.67
21 | Cc1cnc2n(c1=O)CCCC2 | 0.12
22 | COc1ccccc1N1CCN(CCCNc2cc(=O)n(C)c(=O)n2C)CC1 | 1.6
23 | CC(=O)OCCCN1C(=O)C(OC(C)=O)N=C(c2ccccc2)c2cc(Cl)ccc21 (stereo unspecified) | 3.08
24 | CC1CCC2C(C)C(OC(=O)Oc3ccccc3)OC3OC4(C)CCC1C32OO4 (stereo unspecified) | 4.41
25 | Cc1cc2ccccc2o1 | 3.22
26 | O=[N+]([O-])c1ccc(O)cc1O | 1.05
